The subject of data set [1] is Spodoptera littoralis larvae (2nd and 4th instars, laboratory strain of cotton leafworm). The following applies: in vivo.
Method: (§1) Five concentrations (200, 100, 50, 25, 12.5 ppm) were designed for this synthetic compound and the reference fenoxycarb's compound as the dynamic ingredients based on ppm via diluting the commercial formulation.
(§2) In this experiment, the synthetic compound was tested for its insecticidal bioactivity using the industry-standard leaf dip bioassay techniques. […] Until usage, the stocks were kept in a refrigerator. The target substance test results were noted & the concentrations needed to destroy 50% (LC50) of S. littoralis larvae were calculated. The target compound was employed in five different concentrations, & 0.1% Tween 80 was employed as a surfactant. Castor bean leaf discs (nine centimeters in diameter) were dipped in the concentration under test for ten seconds, then fed to 2th & 4th larvae, which were roughly the same size and housed in glass jars (five pound). Each action carried out 3 times with ten larvae each. The mortality equalized via Abbott's formula. Calculations of mortality setback line were measurably rummage via probity analysis. Harmfulness index was strongminded via sun equations. The mortality results of larval insect were estimated through employing probit analysis through a statistics (LDP-line) equation which estimate the LC50 values with 95% fiducially limits of lower, upper confidence limit and slope.
For data set [2] the test system is unchanged. Description: Insecticidal leaf dip bioassay screening. The following applies: for Toxicity index %: fenoxycarb's LC50/compound's LC50 * 100; for LC50: Spodoptera littoralis, in Gossypium hirsutum, foliar, 72 h.
Method: as §1, §2
In a further data set the test system is aquatic insects. The following applies: cited from earlier work.
[3] abbreviates: read-out: LC50 (mg/L) at 95%, 2nd instar larvae, after 72 hours of treatment, leaf dip.
[4] abbreviates: read-out: LC50 (mg/L) at 95%, 4th instar larvae, after 72 hours of treatment, leaf dip.

In brackets after ≈: the same amount, converted by molar mass. Where two headings read alike, the source gives them in different places.

In the case of `O=Cc1ccc(OCC(O)COc2ccc(C=O)cc2)cc1` [Compound 1, 4,4′-[(2-hydroxypropane-1,3-diyl)bis(oxy)]dibenzaldehyde], the “LC50 (mg/L) at 95%” value in data set [1] is listed as “about 25.62 mg/L”. Further, the Toxicity index % in data set [2] (2nd instar larvae, 72 hours) turned out to be 22.93%; in data set [2] (4th instar larvae, 72 hours), 69.54%. The figures for the LC50 in data set [2] (setting [3]) and in data set [2] (setting [4]) were 25.6 mg/L (≈ 85.3 µM) and approximately 86.1 mg/L (≈ 287 µM), respectively. Also, the “activity against Spodoptera littoralis (in words)” value in data set [2] (compared with the reference insecticide Fenoxycarb, 72 hours) was “active against Spodoptera littoralis”.

In the case of `CCc1ccc(C(=O)NN(C(=O)c2cc(C)cc(C)c2)C(C)(C)C)cc1` [tebufenozide], the LC50 with aquatic insects is 100 to 1000 µg/mL.

For `CCOC(=O)NCCOc1ccc(Oc2ccccc2)cc1` [fenoxycarb, reference compound], the LC50 was 5.94 mg/L (≈ 19.7 µM) in data set [2] (setting [3]) and 59.9 mg/L (≈ 199 µM) in data set [2] (setting [4]).

Source of the values: US12213481B1, “4,4′-[(2-hydroxypropane-1,3-diyl)bis(oxy)]dibenzaldehyde as an eco-friendly insecticidal agent against Spodoptera littoralis (boisd.)” (KING FAISAL UNIVERSITY, priority 2023, dated 2025).
